Reference: PubChem BioAssay AID489041 (Sanford-Burnham Center for Chemical Genomics, 2010)
The source made the active and inactive calls. The rule behind the calls is not given here.

System: HEK-293T NF-kB luciferase reporter counterscreen, luminescence
Assay: NF-kB reporter inhibition in HEK-293T, dose response, counter-screen for T-cell antigen receptor NF-kB inhibitors, HEK-293T cells, luminescence (AID 489041)

Row | SMILES | IC50
1 | CCCCC(=O)NC(c1ccc(N(CC)CC)cc1)c1ccc2cccnc2c1O (stereo not drawn) | > 80 µM (inactive)
2 | CCCCN1/C(=C/c2ccc3ccccc3[n+]2CC)Sc2ccccc21 | 2.02 µM
3 | CC(=O)c1ccc(Oc2cc(C)nc(-n3nc(C)cc3C)n2)cc1 | 14.6 µM
4 | COc1ccc(Nc2cc(C)nc(-n3nc(C)cc3C)n2)cc1 | 6.55 µM
5 | CC(=O)Nc1ccc(S(=O)(=O)N2c3ccccc3C(C)=CC2(C)C)cc1 | 4.76 µM
6 | COc1cc(C2c3cc4c(cc3CC3COC(=O)C32)OCO4)cc(OC)c1OC (stereo not drawn) | > 80 µM (inactive)
7 | CCCCC(=O)NC(c1ccc(Cl)cc1)c1ccc2cccnc2c1O (stereo not drawn) | > 80 µM (inactive)
8 | CCCN1C=CC(=C2C(=O)c3ccccc3C2=O)C=C1 | 1.1 µM
9 | CCO[C@@H]1OC(C(=O)NCc2nc3ccccc3[nH]2)=C[C@H](C(C)(C)C)[C@H]1CCCO | 1.37 µM
10 | COc1ccccc1-c1nnc2sc(-c3ccc(N(C)C)cc3)nn12 | 2.32 µM
11 | C#CC[N+](C)(C)CCCCCCCCCCCC | 25.1 µM (inactive)
12 | CCOc1cc(C(=O)N/N=C/C(Br)=C/c2ccccc2)cc(OCC)c1OCC | 1.11 µM
13 | Cc1nc(Nc2nc3c(c(=O)[nH]2)CCC3)nc2ccccc12 | 40.1 µM (inactive)
14 | CC[C@@]1(O)C(=O)OCc2c1cc1n(c2=O)Cc2cc3c(CN(C)C)c(O)ccc3nc2-1 | 29.3 µM (inactive)
15 | O=C(Nc1ccc(CSc2ccccc2)cc1)c1ccc(CN2CCOCC2)cc1 | 0.34 µM
16 | NC(=O)CC(NC(=O)c1ccc(Br)cc1)c1ccc(N2CCCCCC2)c([N+](=O)[O-])c1 (stereo not drawn) | 29.3 µM (inactive)
17 | O=C(/C=C/c1cccc([N+](=O)[O-])c1)n1cnc2ccccc21 | 51.3 µM (inactive)
18 | COc1cc(/C=C/c2ccc3cccc(O)c3n2)cc(OC)c1OC | > 80 µM (inactive)
19 | Cc1ccc(C[n+]2c(-c3ccc(C)cc3)cc(-c3ccc(C)cc3)cc2-c2ccc(C)cc2)cc1 | 1.19 µM
20 | O=C(Nc1ccc(S(=O)(=O)N2CCCC2)cc1)c1ccc(CN2CCc3ccccc3C2)cc1 | 0.73 µM
21 | COc1ccc(CC(=O)Nc2nc(-c3ccc(F)c(F)c3)cs2)cc1OC | 2.87 µM
22 | Cc1cc(C)cc(C(=O)N2CC(=O)Nc3ccccc32)c1 | 4.64 µM
23 | C=C(C)[C@@]12OC3(c4ccccc4)O[C@@H]1C1[C@@H]4O[C@]4(CO)[C@@H](O)[C@]4(O)C(=O)C(C)=C[C@H]4[C@@]1(O3)[C@H](C)[C@H]2OC(=O)/C=C/C=C/c1ccccc1 (stereo partly drawn) | < 0.16 µM
24 | Cc1cc(O)c2c(c1O)C(=O)[C@]13C(=C2O)C(=O)[C@@H]2[C@@H](O)[C@H]1[C@@H]1[C@H](O)[C@H]3C(=O)C3=C(O)c4c(O)cc(C)c(O)c4C(=O)[C@]312 | 11.4 µM
25 | COC(=O)c1[nH]c2ccc(Br)cc2c1NC(=O)CN1CCN(C2CCCCC2)CC1 | 13.4 µM
26 | CCOc1ccc(S(=O)(=O)NCc2ccccn2)cc1NC(=O)c1ccccc1F | > 80 µM (inactive)

Row | SMILES | IC50
27 | O=C(c1ccc(Cl)cc1)c1cc([N+](=O)[O-])ccc1N1CCOCC1 | 11.9 µM
28 | COc1ccc(OC)c(COC(=O)c2cc([N+](=O)[O-])ccc2N2CCOCC2)c1 | 52.4 µM (inactive)
29 | CCOC(=O)c1c(C)[nH]c(C(=O)N/N=C/c2ccc(Br)cc2)c1C | < 0.16 µM
30 | COc1ccc(-c2csc(NC(=O)C3CCN(c4ncnc5sc(C)c(C)c45)CC3)n2)cc1OC | 13.1 µM
31 | Cc1cccc(N(C)S(=O)(=O)c2ccc(-c3cnc(C4CC4)o3)cc2)c1 | 0.57 µM
32 | Cc1ccc(-c2cc3c(N=O)c4ccccc4c-3n[nH]2)cc1 | 0.88 µM
33 | CCc1cc(C(=O)NC2CCCc3c2cnn3-c2cccc(C)c2C)n(C)n1 (stereo not drawn) | < 0.16 µM
34 | COCCCNC(=O)C(=O)Nc1ccc2c(c1)N(S(=O)(=O)c1cccs1)CCC2 | 11.7 µM
35 | CCN1C=CC(=C2C(=O)c3ccccc3C2=O)C=C1 | 0.92 µM
36 | CCOc1cccc(/C=N/Nc2ccc(S(=O)(=O)N(CC)CC)cn2)c1O | 0.31 µM
37 | O=C(Sc1cccc2cccnc12)c1ccccc1Br | 27.1 µM (inactive)
38 | COC(=O)c1ccccc1NC(=O)CSc1nc(-c2ccco2)cc(C(F)(F)F)n1 | 7.95 µM
39 | Cc1ccc(-n2ncc3c(N4CCN(c5ccccc5)CC4)ncnc32)c(C)c1 | 3.24 µM
40 | CCCOCCOC(=O)c1[nH]c2c(c1C)C(=O)CC(c1cc(OC)ccc1OC)C2 (stereo not drawn) | 1 µM
41 | CCOc1ccc2c(c1)sc(N)[n+]2Cc1cc(C)cc2cccnc12 | 7.7 µM
42 | COC(=O)Cc1[nH]n(-c2nc3ccccc3s2)c(=O)c1C(C)=Nc1ccc(OC)cc1 | < 0.16 µM
43 | Cc1ccc(C(=O)O/N=C(\N)c2ccccn2)c(C)c1 | 0.53 µM
44 | CCOCCCNC(=O)c1ccc2c(c1)N=C(CC)c1cc(Br)ccc1S2 | 1.46 µM
45 | CCOc1ccccc1C1CC(=O)Nc2cc(C)c(C)cc21 (stereo not drawn) | 7.75 µM
46 | COC(=O)c1ccc2nc(Nc3nc4c(F)cc(F)cc4s3)sc2c1 | 0.51 µM
47 | Cc1ccc(C(=O)c2cc([N+](=O)[O-])ccc2N2CCOCC2)cc1C | 10.3 µM
48 | C/C=C(\C)C(=O)N[C@@H](c1ccccc1)[C@@H](O)C(=O)O[C@H]1C[C@@]2(O)[C@@H](OC(=O)c3ccccc3)C3[C@](C)(C(=O)[C@H](OC(C)=O)C(=C1C)C2(C)C)[C@@H](O)C[C@H]1OC[C@@]31OC(C)=O (stereo partly drawn) | > 80 µM (inactive)
49 | CCn1ncc(C2=NOC(C(=O)NCc3ccc(Cl)cc3)C2)c1C (stereo not drawn) | 26 µM (inactive)
50 | Cc1ccc(COC(=O)c2cc([N+](=O)[O-])ccc2N2CCOCC2)cc1 | 3.3 µM
51 | COc1cc(Nc2ccc(C)cc2)c([N+](=O)[O-])nc1[N+](=O)[O-] | 19.9 µM
52 | O=C(N/N=C/c1c(O)ccc2ccccc12)c1cccc(C(F)(F)F)c1 | 3.01 µM

Row | SMILES | IC50
53 | C=CCn1c(C)cc(C2=NNC(=NCC)SC2)c1C | 1.43 µM
54 | CCc1ccc2nc(SCC(=O)Nc3ccccc3N3CCOCC3)c(C#N)cc2c1 | > 80 µM (inactive)
55 | CC1Cc2cc(-c3csc(NC(=O)Cc4cccs4)n3)ccc2N1S(C)(=O)=O (stereo not drawn) | 2 µM
56 | CCN(CC)c1ccc(/C=C/c2ccc3ccc(OC)cc3[n+]2CC)cc1 | 0.72 µM
57 | COc1ccccc1NC(=O)c1cnc(Nc2ccccc2OC)c2ccccc12 | > 80 µM (inactive)
58 | COc1ccccc1-c1nnc2n1N=C(c1ccc(O)c(O)c1)CS2 | 2.41 µM
59 | COc1ccc(C(=O)NNC(=O)c2ccccn2)cc1 | 2.92 µM
60 | COc1ccc(/C=N/NC(=O)c2[nH]c3ccc(Br)cc3c2-c2ccccc2)cc1 | 21.1 µM (inactive)
61 | CCCCC(=O)NC(c1ccc(N(C)C)cc1)c1ccc2cccnc2c1O (stereo not drawn) | > 80 µM (inactive)
62 | CC(=O)NC(c1ccc(C(C)C)cc1)c1ccc2cccnc2c1O (stereo not drawn) | 40.7 µM (inactive)
63 | CCn1cc(C(=O)NC2CCCc3c2cnn3-c2cccc(C)c2C)cn1 (stereo not drawn) | 14.7 µM
64 | CCc1c(C)nc2ncnn2c1NCCc1ccc(OC)cc1 | 3.03 µM
65 | Cc1cnc(NC(=O)c2ccc3c(c2)OCCO3)s1 | 3.78 µM
66 | CSc1ccc(COC(=O)c2cc([N+](=O)[O-])ccc2N2CCOCC2)cc1 | 1.7 µM
67 | COc1ccc(C(=O)N(C)Cc2cnn(Cc3ccccc3)c2)cc1S(=O)(=O)N1CCOCC1 | 22.9 µM (inactive)
68 | CC1CCCN(c2ncnc3c2cnn3-c2ccc(Cl)cc2)C1 (stereo not drawn) | 8.88 µM
69 | CC1=NNC(=O)/C1=C\c1cn(-c2ccccc2)nc1-c1ccc(Cl)cc1 | 7.76 µM
70 | O=C(N/N=C/c1c(O)ccc2ccccc12)c1ccc(Br)o1 | 0.55 µM
71 | O=C(Cc1ccc(-c2ccccc2)cc1)NCc1ccccc1 | < 0.16 µM
72 | Cn1nc(C(C)(C)C)cc1C(=O)NCc1cc(F)cc2c1OCOC2 | 2.47 µM
73 | Cc1ccc2oc(/N=C(\N)NC(=O)C(C)(C)C)nc2c1 | < 0.16 µM
74 | Cc1nc2ccccc2c2c1CC(C(C)(Cl)Br)O2 (stereo not drawn) | 2.9 µM
75 | O=C(Nc1ccc(F)cc1)c1ccc(CN2CCc3ccccc3C2)cc1 | 4.71 µM
76 | COC(=O)c1ccc(Oc2cc(C)nc(SC)n2)cc1 | 28.8 µM (inactive)
77 | CC(C)(C)c1ccc(C(=O)O/N=C(\N)c2ccccn2)cc1 | 0.23 µM
78 | O=C(N/N=C/c1ccccc1Cl)c1[nH]c2ccc(Br)cc2c1-c1ccccc1 | 38.3 µM (inactive)

Row | SMILES | IC50
79 | CCCCCCCCCn1c2c(c(=N)c3c1CCC3)CCC2 | 0.98 µM
80 | C=C1C(=O)C=C2CN(C(=O)c3ccccc3)[C@@](Cc3ccc(F)cc3)(C(=O)OC)[C@@H]12 | 11 µM
81 | Cc1c(C(=O)OCc2ccccc2)[nH]c2c1C(=O)CC(c1ccco1)C2 (stereo not drawn) | 10.1 µM
82 | O=C(Nc1ccc(Oc2cccnc2)nc1)c1ccc(C(F)(F)F)cc1 | 1.52 µM
83 | Cc1ccc(S(=O)(=O)Nc2cccc(-c3ccc4nncn4n3)c2)cc1 | 18.4 µM
84 | C=C(C)C(=O)O[C@H]1C/C(C)=C\C(=O)/C=C(\C)[C@H](O)[C@@H]2OC(=O)C(=C)[C@@H]21 | 19.7 µM
85 | O=c1cc(-c2cccc(F)c2)[nH]c2ccccc12 | 1.05 µM
86 | CCOC(=O)c1ccc(NC(=O)Cn2cnc3cc(C)c(C)cc32)cc1 | 0.88 µM
87 | CC(C)Oc1ccccc1C1CC(=O)Nc2cc3c(cc21)OCO3 (stereo not drawn) | 3.01 µM
88 | O=C1/C(=C/c2ccc(N3CCOCC3)o2)SC(=Nc2ccccc2)N1CCc1c[nH]c2ccccc12 | 13.8 µM
89 | CCOC(=O)c1[nH]c(C)c(C(=O)Nc2ccc(C)cc2C)c1C | 46.1 µM (inactive)
90 | Cc1ccc(NC(=O)C2=C(c3ccccc3)S(=O)(=O)CCS2(=O)=O)cc1 | 8.74 µM
91 | O=C(Nc1ncc(Cc2ccc(SC(F)F)cc2)s1)c1ccc(OC(F)F)cc1 | 3.66 µM
92 | Cc1cc(C)nc(SCC(=O)Nc2ccnc3ccccc23)n1 | 9.08 µM
93 | O=C(Nc1ccc(S(=O)(=O)N2CCCCC2)cc1)c1ccc(CN2CCOCC2)cc1 | 3.95 µM
94 | CN(Cc1ccccc1)C1=CC(=[N+]2CCCCC2)CC(C)(C)C1 | 0.73 µM
95 | Cc1cccc(N=Nc2ccc(O)c3ncccc23)c1 | > 80 µM (inactive)
96 | CCN(CC)c1ccc(-c2nn3c(-c4ccccc4OC)nnc3s2)cc1 | 1.87 µM
97 | CCOc1ccccc1C(=O)Nc1ccc2nc(N3CCN(c4ncccn4)CC3)cc(C)c2c1 | 15.2 µM
98 | COc1ccc(CCN2C(=O)C3C4C=CC(C3C2=O)C2C(=O)N(CCc3ccc(OC)c(OC)c3)C(=O)C42)cc1OC (stereo not drawn) | 5.01 µM
99 | CCn1c2ccccc2c2cc(Nc3cc(C)nc4ncnn34)ccc21 | 1.34 µM
100 | COc1ccc(CNS(=O)(=O)c2cc(-c3cc(C)no3)ccc2C(C)C)cc1 | 10.9 µM
101 | O=C(Nc1ccc([N+](=O)[O-])cc1)Nc1ccon1 | > 80 µM (inactive)
102 | Nc1ncn([C@@H]2O[C@H](CO)[C@@H](O)[C@H]2O)c(=O)n1 | 4.76 µM
103 | Cc1noc(C)c1COc1ccc(C(=O)NNC(=O)c2ccccc2F)cc1 | 30.3 µM (inactive)
